The source made the active and inactive calls.
How the values were obtained:
[1] = biological target: T1, Zinc finger protein mex-5 (Caenorhabditis elegans, UniProt Q9XUB2); test: MEX-5/TCR-2 RNA interaction inhibitors, dose response, biochemical, C. elegans, fluorescence polarization (AID 1960)
T1 sequence (Q9XUB2 whole entry): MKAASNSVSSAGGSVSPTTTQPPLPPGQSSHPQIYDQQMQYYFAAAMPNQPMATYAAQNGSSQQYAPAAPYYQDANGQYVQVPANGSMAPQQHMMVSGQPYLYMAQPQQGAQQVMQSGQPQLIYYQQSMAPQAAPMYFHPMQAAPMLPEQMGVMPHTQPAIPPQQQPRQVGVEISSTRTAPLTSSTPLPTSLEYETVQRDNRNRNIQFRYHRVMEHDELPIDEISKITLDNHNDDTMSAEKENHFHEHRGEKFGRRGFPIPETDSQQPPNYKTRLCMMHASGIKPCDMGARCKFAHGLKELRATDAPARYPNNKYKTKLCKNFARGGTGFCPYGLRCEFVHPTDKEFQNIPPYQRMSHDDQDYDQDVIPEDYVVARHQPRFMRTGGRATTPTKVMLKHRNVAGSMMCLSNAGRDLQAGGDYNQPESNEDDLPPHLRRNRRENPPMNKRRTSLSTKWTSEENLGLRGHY

[2] = biological target: T2, RNA-binding protein pos-1 (Caenorhabditis elegans, UniProt G5EF15); test: inhibitors of POS-1/mex-3 RNA binding, dose response, biochemical, fluorescence polarization (AID 1964);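 further: purified POS-1 fused to maltose binding protein made in E. coli; potency of compounds blocking POS-1 binding to fluorescent RNA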
T2 sequence (G5EF15 whole entry): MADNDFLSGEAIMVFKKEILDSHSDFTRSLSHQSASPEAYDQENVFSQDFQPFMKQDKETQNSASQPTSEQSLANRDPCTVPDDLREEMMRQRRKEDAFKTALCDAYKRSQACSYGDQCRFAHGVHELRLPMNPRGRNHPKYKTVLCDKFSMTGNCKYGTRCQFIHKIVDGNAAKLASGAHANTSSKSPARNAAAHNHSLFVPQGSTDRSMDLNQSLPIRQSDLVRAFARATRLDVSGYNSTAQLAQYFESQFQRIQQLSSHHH

[3] = growth suppression of beta-catenin-knockout colon cells, dose response, cell-based, HCT116, human colon tumor (AID 1045); type: functional;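 further: HCT116 colon tumor cells with beta catenin knocked out; cells exposed to compound for 60 hours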
[4] = growth suppression of PTEN-null colon cells, dose response, cell-based, HCT116 PTEN knockout (AID 1047); type: functional;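 further: HCT116 colon tumor cells with PTEN knocked out; cells exposed to compound for 60 hours before readout; potency for loss of cell viability measured by luminescence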
[5] = biological target: T3, Corticotropin-releasing factor receptor 2/Corticotropin-releasing factor-binding protein (Homo sapiens, UniProt P24387+Q13324); test: activators of CRF receptor 2 with binding protein – uHTS hits, confirmation (AID 602473); type: functional; details: read-out: EC50_Mean
T3 sequence (Q13324 whole entry): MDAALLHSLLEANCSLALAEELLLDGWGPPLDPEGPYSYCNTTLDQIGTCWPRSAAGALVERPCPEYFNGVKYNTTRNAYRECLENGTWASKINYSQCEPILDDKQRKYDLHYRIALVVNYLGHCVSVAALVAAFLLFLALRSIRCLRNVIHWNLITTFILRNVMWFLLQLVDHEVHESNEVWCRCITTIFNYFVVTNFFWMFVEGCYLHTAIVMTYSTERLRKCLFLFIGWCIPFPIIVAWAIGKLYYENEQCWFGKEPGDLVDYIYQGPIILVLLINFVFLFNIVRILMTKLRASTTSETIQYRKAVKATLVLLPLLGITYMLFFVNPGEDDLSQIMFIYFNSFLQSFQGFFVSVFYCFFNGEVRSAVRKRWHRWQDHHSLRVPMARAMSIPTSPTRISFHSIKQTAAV
T3 sequence (P24387 whole entry): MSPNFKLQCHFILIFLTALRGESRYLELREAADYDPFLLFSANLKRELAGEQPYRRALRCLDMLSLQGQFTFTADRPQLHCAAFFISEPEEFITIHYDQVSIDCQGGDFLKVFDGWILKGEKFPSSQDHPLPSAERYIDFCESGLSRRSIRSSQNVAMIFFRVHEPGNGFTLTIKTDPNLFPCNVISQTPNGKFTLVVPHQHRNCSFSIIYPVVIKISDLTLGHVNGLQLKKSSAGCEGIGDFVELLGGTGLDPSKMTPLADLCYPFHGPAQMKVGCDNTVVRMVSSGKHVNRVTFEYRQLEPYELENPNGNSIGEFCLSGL

[6] = biological target: T3, Corticotropin-releasing factor receptor 2/Corticotropin-releasing factor-binding protein; test: Dose Response confirmation of uHTS hits for small molecule antagonists of the CRF-binding protein and CRF-R2 receptor complex.; type: functional; details: read-out: IC50_Mean
[7] = biological target: T4, Heat shock factor protein 1 (Mus musculus, UniProt P38532); test: inhibition of MG132-induced HSE-luciferase signal, confirmation, cell-based, NIH3T3, luminescence, dose retest (AID 2382); type: functional;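 further: NIH3T3 fibroblasts with HSF1-driven luciferase reporter stressed by proteasome inhibitor MG132; luminescence from HSF1-driven luciferase expression after 8 hours of MG132 stress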
T4 sequence (P38532 whole entry): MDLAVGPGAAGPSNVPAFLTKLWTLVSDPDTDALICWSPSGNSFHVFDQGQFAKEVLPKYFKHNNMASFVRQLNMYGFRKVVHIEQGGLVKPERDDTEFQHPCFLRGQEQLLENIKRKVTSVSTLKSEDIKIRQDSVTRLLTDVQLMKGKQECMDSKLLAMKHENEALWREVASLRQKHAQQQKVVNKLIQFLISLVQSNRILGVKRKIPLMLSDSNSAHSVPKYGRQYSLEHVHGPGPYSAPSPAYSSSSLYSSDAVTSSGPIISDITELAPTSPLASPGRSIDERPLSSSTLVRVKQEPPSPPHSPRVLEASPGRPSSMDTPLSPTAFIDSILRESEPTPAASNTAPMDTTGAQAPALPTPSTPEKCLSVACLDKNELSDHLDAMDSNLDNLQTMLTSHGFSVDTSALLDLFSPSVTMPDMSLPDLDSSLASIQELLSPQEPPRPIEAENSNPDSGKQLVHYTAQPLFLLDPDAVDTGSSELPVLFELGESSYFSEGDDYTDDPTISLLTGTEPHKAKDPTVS

[8] = biological target: T5, Rac GTPase-activating protein 1 (Homo sapiens, UniProt Q9H0H5); test: MgcRacGAP GTPase-activating activity inhibitors, confirmation, biochemical, ADP Hunter fluorescence, primary and confirmatory (AID 624330); type: functional
T5 sequence (Q9H0H5 whole entry): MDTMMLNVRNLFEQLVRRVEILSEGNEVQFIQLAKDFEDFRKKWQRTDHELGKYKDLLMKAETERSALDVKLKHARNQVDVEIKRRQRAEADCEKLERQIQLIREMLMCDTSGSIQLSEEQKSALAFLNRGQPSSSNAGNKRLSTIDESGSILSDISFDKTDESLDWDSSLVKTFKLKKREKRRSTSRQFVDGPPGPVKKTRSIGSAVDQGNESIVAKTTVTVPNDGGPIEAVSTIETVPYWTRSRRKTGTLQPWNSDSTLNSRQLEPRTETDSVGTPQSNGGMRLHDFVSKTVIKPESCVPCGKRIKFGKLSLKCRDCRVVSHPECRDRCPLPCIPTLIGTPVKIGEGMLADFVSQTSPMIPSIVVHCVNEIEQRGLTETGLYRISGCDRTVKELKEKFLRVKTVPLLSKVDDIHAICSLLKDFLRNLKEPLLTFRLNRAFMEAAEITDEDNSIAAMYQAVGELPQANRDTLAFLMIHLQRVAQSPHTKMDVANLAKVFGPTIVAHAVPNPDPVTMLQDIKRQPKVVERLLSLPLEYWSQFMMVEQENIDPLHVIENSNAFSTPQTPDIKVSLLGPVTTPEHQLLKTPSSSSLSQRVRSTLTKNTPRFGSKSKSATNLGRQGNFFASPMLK

SMILES	EC50 [5]	IC50 [6]	IC50 [8]	further results
CN1C(=O)C(=CNCCCCCCCCCCC(=O)O)C(=O)N(C)C1=O	–	–	–	EC50 [1]: > 300 µM (not active); EC50 [2]: > 300 µM (not active)
CS(=O)(=O)N(CC(O)Cn1c2ccccc2c2ccccc21)c1cccc2ccccc12 (stereo not given)	–	–	–	EC50 [3]: 18.1 µM (active); EC50 [4]: 16 µM (active)
CN(C)S(=O)(=O)c1ccc(C(=O)OCC(=O)Nc2ccc(OC(F)F)cc2)cc1	> 53 µM (inactive)	> 47.1 µM (inactive)	–	–
CC(=O)N1c2ccc(S(=O)(=O)N(C)CC(=O)NC3CCCC3)cc2CC1C (stereo not given)	> 53 µM (inactive)	> 47.1 µM (inactive)	–	–
Cc1[nH]c2ccc(-c3nnc(SCC(=O)c4ccc(F)cc4)o3)cc2c1C	–	–	–	EC50 [7]: > 195 µM (not active); EC50 [3]: 31.2 µM (active); EC50 [4]: 33.4 µM (active)
CCCn1c(=O)c2ccccc2n2c(SCCNCCO)nnc12	–	–	52.2 µM (active)	–
COc1ccccc1NS(=O)(=O)c1cc(N)ccc1N1CCCC1	–	–	47.8 µM (active)	–
COc1cc(/C=C/C(=O)OCC(=O)NNC(=O)c2cc(Cl)ccc2OC)ccc1O	–	–	60.5 µM (active)	–
O=C(O)c1cccc(NC(=NS(=O)(=O)c2ccccc2)c2ccccc2)c1	> 53 µM (inactive)	> 47.1 µM (inactive)	–	–
CCOC(=O)C1=C(C)N=c2s/c(=C/c3ccc(OCC(=O)O)cc3)c(=O)n2C1c1ccc(OC)cc1OC (stereo not given)	–	–	–	EC50 [2]: 85.1 µM (active)
NC(=O)CSc1nnnn1-c1ccc2c(c1)OCCO2	> 53 µM (inactive)	> 47.1 µM (inactive)	–	–
CN(C)c1ccc(/C=N\Nc2ccccn2)cc1	–	–	31.6 µM (active)	–
C[C@H](CO)N1C[C@H](C)[C@@H](CN(C)C(=O)c2ccc3ccn(C)c3c2)OCc2cn(nn2)CCCC1=O	> 53 µM (inactive)	> 47.1 µM (inactive)	–	–
COc1ccc2[nH]c3c(=O)n(Cc4ccc(C(=O)N5CCC(C(N)=O)CC5)cc4)c(=S)[nH]c3c2c1	–	–	61.3 µM (active)	–
Oc1ccc(/C=N/Nc2nc(N3CCCC3)nc(N3CCCC3)n2)cc1O	–	–	57.3 µM (active)	–
Cc1ccc(-c2nnc(S)n2/N=C/c2ccc(C(=O)O)cc2)cc1	–	–	74.4 µM (active)	–

Reference: ChEMBL document CHEMBL1201862, “PubChem BioAssay data set” (2004)
